Data from ChEMBL document CHEMBL1155652, “Synthesis of the marine sponge cycloheptapeptide phakellistatin 5(1)” (2000).
Where a SMILES comes first, the peptide text is derived from it. [ ]: non-standard residue; d: D form.

What was measured:
Format in all cases: functional
DU-145 = assay: Growth inhibition of human DU145 cells
SK-MEL-5 = assay: Growth inhibition of human SK-MEL-5 cells
NCI-H460 = assay: Growth inhibition of human NCI-H460 cells
P388 = assay: Growth inhibition of mouse P388 cells
OVCAR-3 = assay: Growth inhibition of human OVCAR-3 cells
KM-20L2 = assay: Growth inhibition of human KM20L2 cells
SF-295 = assay: Growth inhibition of human SF295 cells

Measured: GI50

CC[C@H](C)[C@@H]1NC(=O)[C@H](C)NC(=O)[C@H](CCSC)NC(=O)[C@H](C)NC(=O)[C@H](CC(N)=O)NC(=O)[C@H](Cc2ccccc2)NC(=O)[C@@H]2CCCN2C1=O [(S)-ASN-PHAKELLISTATIN 5] (cyclo(AIPFNAM))
> 10 µg/mL: all assays above

CC[C@H](C)[C@@H]1NC(=O)[C@H](C)NC(=O)[C@H](CCSC)NC(=O)[C@H](C)NC(=O)[C@@H](CC(N)=O)NC(=O)[C@H](Cc2ccccc2)NC(=O)[C@@H]2CCCN2C1=O [(R)-ASN-PHAKELLISTATIN 5] (cyclo(AIPF[dN]AM))
> 10 µg/mL: all assays above
